Assay results as given in patent publication US6011041A, “Use of anhydrovinblastine” (priority 1996, dated 2000).
Counter-ions that a name gives are not always drawn. Like-named read-outs stand apart in the source and are kept apart here.

Assays:
[1] = system: H460 human non-small cell lung carcinoma; assay: MTT dose response cytotoxicity, H460 (Table 1); format: cell-based; conditions: read-out: DRUG IC50
Procedure: (§1) Cytotoxicity experiments on AHVB were performed as direct comparisons with vincristine and navelbine in order to assess its inherent antineoplastic profile against a variety of tumour cell types relative to other relevant vinca alkaloids. The cytotoxicity of AHVB was investigated in vitro against a panel of tumour cell lines of varying lineage in order to determine the specificity of its antitumour activity with respect to cell type. The tumour lines studied were P388 lymphocytic leukemia (a murine lymphocytic leukemia), Noble (Nb) rat U17 lymphoma, MCF7 human breast carcinoma, H460 human non-small cell lung carcinoma, K562 human erythrokeukemia and LS180 human colon carcinoma based on established NCI in vitro new anticancer drug cytotoxicity screening protocols.
(§2) Standard dose response cytotoxicity assays (R. Mosmass, J. Immunol. Meth., 65:55-64, 1983) were utilized to determine the IC50 (drug concentration required to induce 50% inhibition of tumour cell growth) for vincristine, navelbine and AHVB. The indicated cell lines were obtained from either the ATCC or NCI tumor repository and were cultured in tissue culture media by standard techniques well known to those skilled in the art, prior to dilution to a defined cell concentration required for the studies in 96 well plates.
(§3) A wide range of drug concentrations were exposed to tumour cells growing at log phase in 96-well microtitre plates. Cell concentrations depended on the cell line as well as the length of time to be cultured. Typically, P388 cells were plated at a concentration of 30,000, 2,000 and 750 cells per well for studies lasting 1, 3 and 7 days, respectively MCF7 cells were plated at a concentration of 7,000 and 1,500 cells per well for studies lasting 3 and 7 days, respectively. H460 cells were plated at a concentration of 2,500 and 1,000 cells per well for studies lasting 3 and 7 days, respectively. K562 cells were plated at a concentration of 1,500 and 10,000 cells per well for studies lasting 1 and 3 days, respectively. LS180 cells were plated at a concentration of 5,000 and […] cells per well for studies lasting 3 and 7 days, respectively. After plating all cell lines were incubated (CO2 incubator at 37° C., 5% CO2) for 24 hours prior to addition of the cytotoxic agent (See Table 1). Subsequently the plates were incubated for the indicated time period. At specified times, cells were washed and subsequently exposed to the dye inclusion marker MTT (3-(4,5-dimethylthiazol-2-yl)-2,5diphenyl tetrazolium), which accumulated into viable cells. MTT was added to the cells at a final concentration of 50 μg per well. After a 4 hour incubation, the cells were washed free of media and unreacted MTT, prior to addition of DMSO which was required to solubilize the insoluble formazan precipitate that formed in viable cells. After the sample was mixed through repeated pipetting, the colored product was measured using a plate reader operating at 570 nm. The absorbance values obtained for cells cultured in the absence of drug was assumed to represent 100% viability. Experiments were repeated to substantiate any differences noted between […] and other vinca alkaloids.

[2] = system: LS180 human colon carcinoma; assay: MTT dose response cytotoxicity, LS180 (Table 1); format: cell-based; conditions: read-out: DRUG IC50
Procedure: as §1, §2, §3

[3] = acute (14 day) single dose toxicity in healthy male Nb rats (Table 2); format: in vivo, rat; conditions: rat, in vivo, ip; male Nb rats, single i.p. injection; read-out: subacutely toxic dosage (highest dose which allowed survival of all animals in a group, 3 out of 3)
Procedure: (§4) Range-finding acute (14 day), single dose toxicity studies were performed in healthy male Nb rats in order to determine the maximum tolerated dose of vincristine sulfate, navelbine and AHVB when administered as a single, intraperitoneal injection in these rodents (see Table 2). To this end, healthy non-tumor bearing male Nb rats (weight range 333-399 grams) were divided in groups of 3 animals. Each group was used to test one drug at one dosage. The volumes within which the drugs were administered depended on the concentration of the drug solution (in saline) and the weight of the animals, and ranged from 0.1-1.0 ml. Saline was used as a control. The highest dose of each drug which allowed survival of all animals in a group (3 out of 3) was taken as the subacutely toxic dosage for the drug, i.e. 0.7 mg/kg for vincristine, 2.0 mg/kg for navelbine and 3.0 mg/kg for AHVB.
(§5) The health of the animals was assessed by daily weight measurements in addition to behavioral indications of stress. Animals continued to be monitored throughout the complete 14 day study period. Animals were euthanized in the event of signs of severe stress or weight loss in excess of 20%. All animals were necropsied at the end of the study period or at the time of premature euthanasia.

[4] = system: healthy male Nb rats; assay: as above; format: in vivo, rat; conditions: single i.p. injection
Procedure: as §4, §5

[5] = NCI-H460, 72 h, H460, exposure time 3 days
[6] = NCI-H460, 168 h, H460, exposure time 7 days
[7] = 72 h, LS180, exposure time 3 days
[8] = 168 h, LS180, exposure time 7 days

Compound | IC50 ([1]; NCI-H460, 72 h) [nM] | IC50 ([1]; NCI-H460, 168 h) [nM] | IC50 ([2]; LS180, 72 h) [nM] | IC50 ([2]; LS180, 168 h) [nM] | MTD at 336 h [3] [mg/kg] | Mortality (surviving rats/injected rats) ([4]; 3.0 mg/kg) | Mortality (surviving rats/injected rats) ([4]; 4.4 mg/kg) | Mortality (surviving rats/injected rats) ([4]; 10.0 mg/kg) | IC50 [1, 5] [nM] | IC50 [1, 6] [nM] | IC50 [2, 7] [nM] | IC50 [2, 8] [nM] | Mortality (surviving rats/injected rats) ([4]; 0.5 mg/kg) | Mortality (surviving rats/injected rats) ([4]; 0.7 mg/kg) | Mortality (surviving rats/injected rats) ([4]; 2.0 mg/kg) | Mortality (surviving rats/injected rats) ([4]; 5.0 mg/kg)
CCC1=CC2CN(CCc3c([nH]c4ccccc34)C(C(=O)OC)(c3cc4c(cc3OC)N(C)C3C(O)(C(=O)OC)C(OC(C)=O)C5(CC)C=CCN6CCC43C65)C2)C1 (stereo not shown) [AHVB, 3',4'-anhydrovinblastine] | 10 | 5 | > 50 | 17.5 | 3 | 3/3 | 0/1 | 0/3 | – | – | – | – | – | – | – | –
CC[C@]1(O)C[C@H]2CN(CCc3c([nH]c4ccccc34)[C@@](C(=O)OC)(c3cc4c(cc3OC)N(C=O)[C@H]3[C@@](O)(C(=O)OC)[C@H](OC(C)=O)[C@]5(CC)C=CCN6CC[C@]43[C@@H]65)C2)C1 [vincristine, Sulfate of 22-oxovincaleukoblastine] | – | – | – | – | 0.7 | – | – | – | 3.5 | 2.5 | > 50 | 1.5 | 3/3 | 3/3 | – | –
CCC1=C[C@@H]2CN(C1)Cc1c([nH]c3ccccc13)[C@@](C(=O)OC)(c1cc3c(cc1OC)N(C)[C@H]1[C@@](O)(C(=O)OC)[C@H](OC(C)=O)[C@]4(CC)C=CCN5CC[C@]31[C@@H]54)C2 [navelbine, 3',4'-didehydro-4'-deoxy-C'-norvincaleukoblastine-di-L-tartrate] | – | – | – | – | 2 | – | – | – | 0.3 | > 0.5 | > 50 | 0.5 | – | – | 3/3 | 0/3
